# Assay results: a melting point compilation (Tetko et al.; mined from patent text by program, amines drawn as free bases though some values may be those of a salt)
row,melting point,Compound
1,203 to 204 °C,CCn1c2c(c3ccccc31)C(=O)NCC2
2,85 to 89 °C,CCn1c(-c2ccc(-n3ccnc3)cc2)cnc1[C@H](Cc1ccccn1)N(C=O)c1cc2cc(C(F)(F)F)ccc2o1
3,228 °C,CCn1cc(C(=O)O)c(=O)c2cc(Cl)c(N3CCN(Cc4ccccc4)CC3)cc21
4,108 to 110 °C,CCNC(=O)NCC1CC1c1cccn2nc(C)cc12 (stereo unspecified)
5,198 to 199 °C,N#Cc1cnn2c1N(C(=O)CCl)CC=C2c1ccc(Cl)cc1
6,109 to 110 °C,CC(C)(CSc1ccc(Cl)cc1)C(O)Cn1ccnc1 (stereo unspecified)
7,170 to 172 °C,CC(CCC(=O)O)C(=O)NC1(C(=O)O)CCCC1 (stereo unspecified)
8,114 to 116 °C,FC(F)(F)c1cc(CCC2OCCNC2c2ccccc2)cc(C(F)(F)F)c1 (stereo unspecified)
9,56 to 58 °C,CCCCNc1c(C(=O)OCC)c(C)nc2nccnc12
10,128 to 132 °C,O=C(c1ccc(-c2ccccc2)cc1)c1cccnc1Cl
11,144 to 146 °C,CC1=C(c2ccncc2)SC(C)C(=O)N1 (stereo unspecified)
12,151 to 154 °C,CC(C)CCc1c(-c2ccc(S(C)(=O)=O)cc2)cnn(-c2ccc(F)cc2)c1=O
13,197 to 198 °C,O=Cc1c2ccccc2c(C=O)c2c1ccc1ccccc12
14,143 to 144 °C,COc1ccc(NC(=O)Cn2c3c(c4c(Cl)c(Cl)ccc42)CCN(C(=O)OC(C)(C)C)CC3)cc1
15,272 °C,O=c1c2ccc(/C=C/c3ccc(O)cc3)cc2cnn1-c1ccccn1
16,146 to 149 °C,COC(=O)/C=C/CSc1nc(N)cc(Cl)n1
17,67 to 68.5 °C,c1ccc(CN2CCC3(CC2)OCc2ccccc23)cc1
18,175 to 178 °C,O=C(CC(=O)C(F)(F)F)c1nc2ccc(F)cc2s1
19,148 to 151 °C,CCOC(=O)c1cn(C2CC2)c2c(F)c(N3CC[C@H](NC(=O)OC(C)(C)C)C3)c(F)cc2c1=O
20,32 to 32.5 °C,COc1cc(N)c2nccc(C)c2c1OCCCCCCCCCc1ccccc1
21,> 300 °C,CN(c1cc2c3c(c1)CCCC3(C)CCC2)c1ncc(C(=O)O)cn1
22,194 to 196 °C,COc1ccc(Cl)cc1C(=O)NC1Cc2ccc(S(=O)(=O)NC(=O)NCC3CCCC3)cc2C1 (stereo unspecified)
23,264 to 267 °C,O=C(Nc1cccc2c1C(=O)c1c-2n[nH]c1-c1ccc(C(=O)NC2CCCCC2)s1)NN1CCOCC1
24,175 to 177 °C,COc1cc(NS(=O)(=O)c2ccc(Cl)cc2)c(C(=O)Cl)cc1OC
25,174 to 176 °C,CCc1nc2cc(Nc3nccc(-c4ccc(N5CCN(CC)CC5)nc4)n3)ccc2o1
26,155 to 156 °C,CCCc1ccc(-c2ccc3c(c2)C=C(C(=O)OC)CCS3(=O)=O)cc1

row,melting point,Compound
1,249 to 250 °C,CC(C)Cn1c(=O)n(C)c(=O)c2cnc(N)nc21
2,205 to 207 °C,CCOC(=O)c1cn(-c2cc(NC(=O)OC(C)(C)C)c(F)cc2F)c2cc(F)c(C)cc2c1=O
3,194 to 195 °C,O=C(CNCc1ccccc1)CP(=O)(O)C(Cl)(Cl)Cl
4,116 °C,NC(=O)C1COCCN1C1CC1 (stereo unspecified)
5,183 to 184 °C,Oc1ccc2c(c1)Cc1cc(Br)ccc1-2
6,66 to 67 °C,CC1(S(C)(=O)=O)C(I)=C(S(C)(=O)=O)C=CC1C(=O)O (stereo unspecified)
7,94.5 °C,O=C(O)C(Nc1ccc2ccccc2c1)c1c(Cl)cccc1Cl (stereo unspecified)
8,39 to 40 °C,c1ccc(CSc2nc3ccccc3s2)cc1
9,282 to 285 °C,Brn1nnc2c3scnc3ccc21
10,131 to 133 °C,O=C1OC(=O)C2=C1SCC(c1ccccc1)S2 (stereo unspecified)
11,227 to 228 °C,NC(N)=Nc1nc(-c2cccc(CNC(=O)C3CCCNC3)n2)cs1 (stereo unspecified)
12,195 to 200 °C,O=C1N(c2ccc(F)cc2)c2ccccc2C1(O)c1cc2c(cc1O)OCCO2 (stereo unspecified)
13,140 to 141 °C,COc1ccc(-c2nnc(C)n2-c2ccccc2)cc1
14,165 to 168 °C,COc1c(O)ccc2oc(-c3ccc(O)cc3)cc12
15,101 to 104 °C,COS(=O)(=O)CS(C)(=O)=O
16,178 to 179 °C,Oc1c(-c2ccc(F)cc2)nn2ccccc12
17,208 to 211 °C,COc1cc(C(=O)NS(=O)(=O)c2ccccc2Cl)ccc1Cc1cn(C)c2ccc(CCNC(=O)N(C)C)cc12
18,173 to 175 °C,CC(=O)Nc1c([N+](=O)[O-])cc(Br)c2c1CN(C(C)=O)CC2
19,170 to 173 °C,CC1=C(c2ccc(OCC(=O)O)c(Cl)c2Cl)CC(C)CC1=O (stereo unspecified)
20,238 to 240 °C,N#Cc1cnn2c(-c3cccc(Cl)c3)ccnc12
21,47 °C,CC(C)COc1ccc(Br)cc1OCC(C)C
22,81 °C,CCOC(=O)C(=CN1c2ccc(F)c(F)c2OCC1COC)C(=O)OCC (stereo unspecified)
23,40 to 41 °C,CC(=O)NCCCc1cccc2c1CC(CCCCc1ccccc1)O2 (stereo unspecified)
24,168 °C,CC(=O)OC1CSC(Oc2cncc(-c3cc4ccccc4s3)c2)C(OC(C)=O)C1OC(C)=O (stereo unspecified)
25,270 to 272 °C,CSc1nc(O)nc(-c2ccncc2)n1
26,116 to 117 °C,COc1ccc(C=O)c(O)c1O

row,melting point,Compound
1,33 to 34 °C,COC(=O)Oc1ccc(OC)cc1
2,131 to 132 °C,CCOC(=O)C(=NO)c1ccc(Oc2ccccc2)cc1
3,34 to 35 °C,CCOC(=O)C(Cc1ccc(C(F)(F)F)cc1)C(=O)c1ccc(F)cc1F (stereo unspecified)
4,314 to 315 °C,Oc1cc(C(F)(F)F)nc2cccc(C(F)(F)F)c12
5,> 315 °C,O=S(=O)(O)COc1ccc(Cl)cc1Br
6,92.5 °C,CC(C)(C)C1=NN(c2ccc(S(=O)(=O)O)cc2)C(c2ccc(Cl)cc2)C1 (stereo unspecified)
7,253 °C,CN(c1cccc2cc(-c3nccs3)[nH]c12)S(=O)(=O)c1ccsc1CS(C)(=O)=O
8,190 to 191 °C,Fc1ccc(Nc2nc3ccccc3o2)cc1C(F)(F)F
9,113 °C,CCOC(=O)C(=CC=C(SC)C(=O)c1ccc(N2CCCCC2)cc1)N(C)C
10,178 to 179 °C,Cc1nnc(-c2ccc3occ(-c4cc(C(F)(F)F)ccc4F)c3c2)o1
11,150 to 151 °C,COc1ccc(C2Sc3c(ccc4ccccc34)N(CCN(C)C)C(=O)C2OC(=O)c2ccccc2O)cc1 (stereo unspecified)
12,111 to 113 °C,CCOc1cc([C@@H](CC(=O)N(C)C)N2Cc3cccc(NCC(C)(C)C)c3C2=O)ccc1OC
13,200 to 203 °C,Cc1cc(C)c2c(=O)n(CC(=O)N3CCOCC3)sc2n1
14,214 to 217 °C,O=C(NNC(=O)c1occ(-c2ccccc2)c1-c1ccccc1)c1ccc(O)c([N+](=O)[O-])c1
15,218 to 219 °C,Nc1cc(Cl)ccc1Oc1c(C(=O)O)n(Cc2ccccc2)c2ccccc12
16,105 to 106 °C,COc1cc(NC(=O)CC(C)=O)c(OC)cc1Cl
17,236 °C,O=C(N[C@H]1CC[C@H](CCN2CCN(c3nccc4c3OCC4)CC2)CC1)c1ccc(F)cc1
18,52 to 54 °C,COC(=O)c1sc(C)c(C)c1O
19,114 °C,CCCCCCCNC(=O)N(C)c1cccc(-c2ccc(C=C(OC)C(=O)O)cc2)c1
20,84.5 to 87 °C,COC(=O)C(Oc1ccc(F)cc1)c1ccc(Sc2ccc(Cl)cc2)cc1 (stereo unspecified)
21,160 to 161 °C,CCCC1=C(C(=O)O)C(CC)n2ncc(C(=O)OCC)c2N1 (stereo unspecified)
22,63 to 65 °C,O=CN(c1cccc(C(F)(F)F)c1)c1cccc(C(F)(F)F)c1
23,109 to 110 °C,CCCc1c(OCCCCCCc2cccc(CCCCCC(=O)O)c2CCC(=O)O)ccc2c1OCCC2=O
24,91 to 93 °C,CCCC1(CCC)CCC2(CC1)CC(=O)OC(=O)C2
25,103 to 105 °C,CC(NC=O)c1ccccc1C(F)(F)C(F)(F)c1ccccc1 (stereo unspecified)
26,> 70 °C,CC1(C)CC1C(=O)NC(=CCCCSc1ncccc1O)C(=O)O (stereo unspecified)

row,melting point,Compound
1,122 to 123 °C,CC(=O)N1c2ccccc2[C@H](Nc2ccccc2C(=O)O)C[C@@H]1C (relative stereo)
2,135 to 138 °C,CCCc1nc(-n2cccc2)c(C(=O)OC)[nH]1
3,138 to 139 °C,COC(=O)CCc1cc2cc(F)c(Cl)cc2[nH]1
4,157 to 158 °C,Cc1cccc(NC(=O)N(C)c2nc(-c3ccccc3)c(-c3ccc(=O)n(C(C)C)n3)s2)c1
5,136 to 138 °C,CCC(CC)NC1=CC(CC(C(=O)OC)C(=O)OC)(Nc2c(C)cc(C)cc2C)NC(C)=C1 (stereo unspecified)
6,122 to 124 °C,CC(C)(C)C(O)C(=Cc1ccc2ccccc2c1)n1cncn1 (stereo unspecified)
7,178 °C,COc1cc2c(cc1OC)C(=O)NN(CCCO)C2
8,168 to 170 °C,O=C(NCCO)/C(=C/c1ccc(OC(F)(F)F)cc1)NC(=O)c1ccc(OCC2CCC2)cc1
9,165 to 169 °C,CCOC(=O)C1(NS(=O)(=O)c2ccc3c(Cl)cnc(NC(=N)N)c3c2)CCC1
10,142 to 144 °C,NC1CCN(C2c3ccccc3COc3ccc(Br)cc32)CC1 (stereo unspecified)
11,200 to 202 °C,CCOCOc1cccc(C(CC#N)N2Cc3c(Cl)ccc(NC(=O)C4CC4)c3C2=O)c1 (stereo unspecified)
12,272 to 274 °C,Cc1nc2c3c(c(CO)cc2n1C)CCC1(Cc2ccccc2C1)N3
13,86 to 88 °C,Cc1ccccc1-c1nc(-c2cccc(Cl)c2)n(C)n1
14,74 to 76 °C,CCN1C(=O)c2cccc(C)c2Oc2ncccc21
15,264 to 265 °C,N#Cc1ccc(-c2cc(-c3ccc(C#N)cc3[N+](=O)[O-])no2)cc1
16,93 to 94 °C,ICCC12CC3CC(CC(C3)C1)C2
17,80 to 82 °C,COC(=O)Nc1cccc(F)c1I
18,181 °C,CC(O)=C(C#N)C(=O)Nc1ccc(Br)cc1Br
19,119 °C,Cc1cc(O)c(S(=O)C(C)(C)C)c(=O)o1 (stereo unspecified)
20,252 to 254 °C,O=C1CC2Cc3cc(N4CCCCC4)ccc3C2=NN1 (stereo unspecified)
21,116 °C,CC1(C)C=C(c2cccnc2)c2cc(Br)ccc2OC1
22,99 to 102 °C,CSc1nc(Cc2ccccc2N)n[nH]1
23,115 to 117 °C,CCc1c(CCN2CCC(c3noc4cc(F)ccc34)CC2)sc2c1NC(=O)CCC2

row,Compound,melting point
1,Cc1nnc2n1-c1ccc(Br)cc1C(c1ccccc1)=NC2,268 to 270 °C
2,Cc1nnc(CO)n1-c1ccc(Cl)cc1C(=O)c1ccccc1,138 to 142 °C
3,O=C(C1CO1)C(Cl)(Cl)Cl (stereo unspecified),92 to 95 °C
4,Nc1c2c(nc3ccccc13)CCCC2N1CCCC1 (stereo unspecified),201 to 203 °C
5,CC(C)(O)c1ccc(CCl)cc1,101 to 103 °C
